Laboratory results reported in US5985910A, “3- [4- (2- Phenyl-Indole-1-ylmethyl) Phenyl]- Acrylamides as estrogenic agents” (priority 1997, dated 1999).

Columns and labels:
[1] = tested on: Ishikawa cells; test: Ishikawa Cell Alkaline Phosphatase Assay; format: cell-based, human; conditions: for % Activation (Compound ± 1 nM 17β-estradiol) (alkaline phosphatase): 10^-6 M compound + 1 nM 17β-estradiol, 48 h (antiestrogen test); for % Activation (alkaline phosphatase): compound alone, 48 h, percent of response related to 1 nM 17β-estradiol
Experimental: Ishikawa Cell Alkaline Phosphatase Assay
(§1) Cell Maintenance and Treatment
Ishikawa cells were maintained in DMEM/F12 (50%:50%) containing phenol red+10% fetal bovine serum and the medium was supplemented with 2 mM Glutamax, 1% Pen/Strap and 1 mM sodium pyruvate. Five days prior to the beginning of each experiment (treatment of cells) the medium was changed to phenol red-free DMEM/F12+10% dextran coated charcoal stripped serum. On the day before treatment, cells were harvested using 0.5% trypsin/EDTA and plated at a density of 5×10^4 cells/well in 96-well tissue culture plates. […] Cells were treated for 48 h prior to assay. […] Sample population for at each dose was n=8.
Alkaline Phosphatase Assay
At the end of 48 h the media is aspirated and cells are washed three times with phosphate buffered saline (PBS). 50 μL of lysis buffer (0.1 M Tris-HCl, pH 9.8, 0.2% Triton X-100) is added to each well. Plates are placed at -80° C. for a minimum of 15 minutes. Plates are thawed at 37° C. followed by the addition of 150 μL of 0.1 M Tris-HCl, pH 9.8, containing 4 mM para-nitrophenylphosphate (pNPP) to each well (final concentration, 3 mM pNPP).
Absorbance and slope calculations were made using the KineticCalc Application program (Bio-Tek Instruments, Inc., Winooski, Vt.). Results are expressed as the mean +/-S.D. of the rate of enzyme reaction (slope) averaged over the linear portion of the kinetic reaction curve (optical density readings every 5 minutes for 30 minutes absorbance reading).
Various compounds were assayed for estrogenic activity by the alkaline phosphatase method and corresponding ED50 values (95% C.I.) were calculated. The four listed in the following were used as reference standards:
A description of such methods is provided by Holinka, C. F., Hata, H., Kuramoto, H. and Gurpide, E. (1986) Effects of steroid hormones and antisteroids on alkaline phosphatase activity in human endometrial cancer cells (Ishikawa Line). Cancer Research, 46:2771-2774, and by Littlefield, B. A., Gurpide, E., Markiewicz, L., McKinley, B. and by Hochberg, R. B. (1990) A simple and sensitive microtiter plate estrogen bioassay based on stimulation alkaline phosphatase in Ishikawa cells; Estrogen action of D5 adrenal steroids. Endocrinology, 6:2757-2762.

[2] = tested on: uteri; test: Rat Uterotrophic/Antiuterotrophic Bioassay (results headed 3-Day Ovariectomized Rat Model); format: in vivo, rat (Sprague-Dawley)
Experimental: Rat Uterotrophic/Antiuterotrophic Bioassay
Immature Sprague-Dawley rats (female, 18 days old) were tested in groups of six. […] On day 4 the animals were sacrificed by CO2 asphyxiation and their uteri were removed and stripped of excess lipid, any fluid removed and the wet weight determined. A small section of one horn was submitted for histology and the remainder used to isolate total RNA in order to evaluate complement component 3 gene expression.

[3] = target: T1, estrogen receptor (Homo sapiens, UniProt P03372); test: In Vitro Estrogen Receptor Binding Assay ([3H]-17β-estradiol competition, cytosol of CHO cells overexpressing the estrogen receptor); set-up: made in house; host or cells: CHO cells overexpressing the receptor; 100,000 g cytosol
T1 sequence (P03372 1-595): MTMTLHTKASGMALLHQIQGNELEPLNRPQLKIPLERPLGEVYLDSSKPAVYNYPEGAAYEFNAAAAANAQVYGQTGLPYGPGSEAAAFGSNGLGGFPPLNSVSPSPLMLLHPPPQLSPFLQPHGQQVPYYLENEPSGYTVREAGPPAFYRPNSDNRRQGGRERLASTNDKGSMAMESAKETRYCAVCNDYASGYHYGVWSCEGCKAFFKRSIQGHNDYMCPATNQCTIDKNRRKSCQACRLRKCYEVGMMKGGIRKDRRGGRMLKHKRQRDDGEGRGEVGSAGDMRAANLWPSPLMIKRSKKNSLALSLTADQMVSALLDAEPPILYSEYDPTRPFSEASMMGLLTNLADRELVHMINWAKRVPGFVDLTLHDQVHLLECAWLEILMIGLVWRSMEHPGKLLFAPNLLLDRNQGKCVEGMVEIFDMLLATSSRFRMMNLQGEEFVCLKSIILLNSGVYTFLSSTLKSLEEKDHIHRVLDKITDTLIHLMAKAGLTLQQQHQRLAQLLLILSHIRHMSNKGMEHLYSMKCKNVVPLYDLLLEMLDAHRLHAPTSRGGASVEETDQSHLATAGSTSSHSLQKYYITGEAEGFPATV
Experimental: In Vitro Estrogen Receptor Bonding Assay
CHO cells overexpressing the estrogen receptor were grown in 150 mm^2 dishes in DMEM+10% dextran coated charcoal, stripped fetal bovine serum. The plates were washed twice with PBS and once with 10 mM Tris-HCl, pH 7.4, 1 mM EDTA. Cells were harvested by scraping the surface and then the cell suspension was placed on ice. Cells were disrupted with a hand-held motorized tissue grinder using two, 10-second bursts. […] The cytosol was then frozen and stored at -80° C. Protein concentration of the cytosol was estimated using the BCA assay with reference standard protein.
100 uG/100 uL of the receptor preparation was aliquoted per well. […] The plate was incubated at room temperature for 2.5 h. […] 200 uL of the supernatant solution was then removed for scintillation counting. Samples were counted to 2% or 10 minutes, whichever occurs first. […] Also, wells containing radioactivity but no cytosol were processed with charcoal to estimate unremovable DPM of [^3 H] […].
Counts per minute (CPM) of radioactivity were automatically converted to disintegrated per minute (DPM) by the Beckman LS 7500 Scintillation Counter using a set of quenched standards to generate a H# for each sample.
((DPM sample-DPM not removed by charcoal)/(DPM estradiol-DPM not removed by charcoal))×100%=% of estradiol binding
For the generation of IC50 curves, % binding is plotted vs compound. […] For a description of these methods, see Hulme, E. C., ed. […] Receptor-Ligand Interactions: A Practical Approach. IRL Press, New York (see especially chapter 8).

[4] = target: T1, estrogen receptor; test: 2X VIT ERE Transfection (luciferase) Assay in CHO cells; format: cell-based; set-up: expressed in transfected cells; host or cells: Chinese Hamster Ovary (CHO) cells, stably transfected
Experimental: 2X VIT ERE Transfection Assay
as §1
Chinese Hamster Ovary cells (CHO) which had been stably transfected with the human estrogen receptor were maintained in DMEM+10% fetal bovine serum (FBS). 48 h prior to treatment the growth medium was replaced with DMEM lacking phenol red +10% dextran coated charcoal stripped FBS (treatment medium). Cells were plated at a density of 5000 cells/well in 96-well plates containing 200 μL of medium/well.
Calcium Phoshate Transfection
Reporter DNA (Promega plasmid pGL2 containing two tandem copies of the vitellogenin ERE in front of the minimal thymidine kinase promoter driving the luciferase gene) was combined with the B-galactosidase expression plasmid pCH110 (Pharmacia) and carrier DNA (pTZ18U) in the following ratio:
20 uL of this mixture was added to each well of cells and remained on the cells for 16 h. […] Each treatment condition was performed on 8 wells (n=8) which were incubated for 24 h prior to the luciferase assay.
After removing the PBS, 25 uL of Promega lysis buffer was added to each well and allowed to stand at room temperature for 15 min, followed by 15 min at -80° C. and 15 min at 37° C. 20 uL of lysate was transferred to an opaque 96 well plate for luciferase activity evaluation and the remaining lysate (5 uL) was used for the B-galactosidase activity evaluation (normalize transfection). The luciferan substrate (Promega) was added in 100 uL aliquots to each well automatically by the luminometer and the light produced (relative light units) was read 10 seconds after addition.
To the remaining 5 uL of lysate 45 uL of PBS was added. Then 50 uL of Promega B-galactosidase 2× assay buffer was added, mixed well and incubated at 37° C. for 1 hour. A plate containing a standard curve (0.1 to 1.5 milliunits in triplicate) was set up for each experimental run. The plates were analyzed on a Molecular Devices spectrophotometric plate reader at 410 nm. The optical densities for the unknown were converted to milliunits of activity by mathematical extrapolation from the standard curve.
The luciferase data was generated as relative light units (RLUs) accumulated during a 10 second measurement and automatically transferred to a JMP (SAS Inc) file where background RLUs were subtracted. The B-galactosidase values were automatically imported into the file and these values were divided into the RLUs to normalize the data. The mean and standard deviations were determined from a n=8 for each treatment. […] These techniques are described by Tzukerman, M. T., Esty, A., Santiso-Mere, D., Danielian, P., Parker, M. G., Stein, R. B., Pike, J. W. and McDonnel, D. P. (1994). Human estrogen receptor transactivational capacity was determined by both cellular and promoter context and mediated by two functionally distinct intramolecular regions (see Molecular Endocrinology, 8:21-30).

[5] = tested on: ovariectomized rat; conditions: background, cited from earlier work
[6] = tested on: bone; conditions: background; cited from earlier work
[7] = tested on: uterus; conditions: background; cited from earlier work

Estrogen Receptor Affinity (RBA) [3]	% Activation with 1 nM 17β-estradiol (luciferase) ([4]; 1 uM compound + 1 nM 17β-estradiol, 24 h (antagonism)) [%]	activation at 1 µM ([4]; CHO, 24 h) [%]	Compound	% Activation (Compound ± 1 nM 17β-estradiol) (alkaline phosphatase) [1] [%]	% Activation (alkaline phosphatase) [1] [%]	uterine wet weight, 100 μG plus 1 μG 17β-Estradiol ([2]; 100 μG compound + 1 μG 17β-estradiol, estradiol alone: Example 11 group 90.8, Examples 14/15 group 95.5 mg) [mg]	ability to spare bone (in words) [5]	stimulation of uterine growth (in words) ([5]; compared with Tamoxifen)	uterine wet weight, 10 μG ([2]; 10 μG compound, controls: tamoxifen/raloxifene 42.7, Example 7 20.2, Example 12 31.4, Example 11 24.5, Examples 14/15 29.1 mg) [mg]	uterine wet weight, 100 μG ([2]; 100 μG compound, controls: tamoxifen/raloxifene 42.7, Example 7 20.2, Example 12 31.4, Example 11 24.5, Examples 14/15 29.1 mg) [mg]	effect on the bone in humans (in words) [6]	effect in the uterus (in words) [7]
80	12	8	CCCCN(CCCC)C(=O)/C=C/c1ccc(Cn2c(-c3ccc(O)cc3)c(C)c3cc(O)ccc32)cc1 [Example 11, (E)-N,N-Dibutyl-3-{4-[5-hydroxy-2-(4-hydroxy-phenyl)-3-methyl-indol-1-ylmethyl]-phenyl}-acrylamide]	11	6	81.0						
			O=C(c1ccc(OCCN2CCCCC2)cc1)c1c(-c2ccc(O)cc2)sc2cc(O)ccc12 [raloxifene]		5		maintaining the ability to spare bone	stimulate uterine growth in the ovariectomized rat to a lesser extent than Tamoxifen				
			CC/C(=C(\c1ccccc1)c1ccc(OCCN(C)C)cc1)c1ccccc1 [tamoxifen]	45	0				69.6	71.4	estrogen agonist like effect on the bone	partial agonist in the uterus
